Measured values: US11130959B2, “Methods and compositions for combinations of mutations associated with herbicide resistance/tolerance in rice” (priority 2016, dated 2021)

How the values were obtained:
[1] = test system: rice line PL1214418M2-73009 and new lines that inherited the ACCase tolerance; experiment: Trial of recovery of ACCase tolerance in the combined line; assay type: in vivo, Oryza sativa; conditions: 0.5×, 1×, 2×, 4× of label rate
Protocol: Another trial was conducted to confirm recovery of the ACCase inhibitor resistance from the RTA1 mutation as in the line ML0831265-01493. In this trial the new line PL1214418-73009 with combined HPPD and ACCase tolerance was planted in a row along with other various lines including the original donor line ML0831265-01493 (planted in a plot), ML0831266-03093, P1003, R0146 parent line for ACCase tolerance. The lines were all tested with the ACCase herbicides fluazifop at 0.5×, 1×, 2×, and 4× multiples of the label application rate (210 gmai/ha) and quizalofop at 0.5×, 1×, 2×, and 4× multiples of the label application rate (77 gmai/ha).

[2] = test system: rice lines RTA1, RTA2, RTA1+RTA2, RTA1+HPPD; experiment: Field trial with increasing doses of FOP herbicides, all trait combinations; assay type: in vivo, Oryza sativa
Source text: 4 weeks post preflood application. […] FIG. 21E graphical representation.

[3] = test system: rice line RTA1 (ML0831265-01493, G2096S); experiment: Field trait tolerance trial, FOP herbicides applied sequentially at 2-leaf and pre-flood; assay type: in vivo, Oryza sativa; conditions: for injury rates: RTA1, 2× application rates
Source text: (§1) FIG. 20A-FIG. 20D showing % Injury response data and plot pictures. Material tested included ACCase-inhibitor resistant combined ACCase lines (RTA1+RTA2), the RTA1 and the RTA2 singles and the stack RTA1+HPPDi+HPPDni. Two applications (at the 2 leaf and pre-flood stage) used the same rate for both applications. […] (all images taken 4 weeks post preflood app), FIG. 20D Plat order (left to right) RTA1, RTA2, RTA1+RTA2, RTA1+HPPD i+HPPDni, P1003, R0146.
(§2) FIG. 21A-FIG. 21E, show plot pictures and % Injury response for ACCase lines RTA1, RTA2, and the stacks RTA1+RTA2 as well as the stack […], when challenged by increasing doses of the main FOP herbicides. […] FIG. 21A untreated control, FIG. 21B 4× Quizalofop, FIG. 21C 4× Fluazifop, FIG. 21D 4× Propaquizafop. 4 weeks post preflood application. Plot order (left to right) G2096S, RTA2, G2096S+RTA2, G2096S+HPPD, P1003, R0146. FIG. 21E graphical representation.
Yield response after sequential 2-leaf and pre-flood quizalofop application.
(§3) Evaluation of the novel herbicide resistance genes, subject of this application, was conducted with a range of suitable herbicide doses that cover application rates typically used for rice farming operations while also taking into consideration possible deviations from the manufacturer-recommended doses. Considering 1×, the recommended manufacturers or best practice recommended dose, the most frequently evaluated additional doses are 2× and 4× with some experiments including other values.

[4] = test system: common weeds in rice (grass weeds such as barnyard grass); experiment: Weed control in rice crops; assay type: in vivo; conditions: in vivo
Protocol: FIGS. 5A and 5B are photographs of results of trait tolerance trials; weed control by mesotrione herbicide applied pre-planting was evaluated; the plots were planted with a hybrid of the HPPD tolerant line ML0831266-03093; just before planting, the plot on the right FIG. 5B received an application of mesotrione at 210 gmai/ha; the plot on the left FIG. 5A had no herbicide applied either pre-plant or post-emergence; pictures were taken four weeks after planting showing differences in weed appearance.
While testing the tolerant lines, the parent lines were also tested to serve as controls and as an indication of commercial potential as a red rice/wild weedy rice control strategy.
Rice is tolerant to certain ACCase inhibitor herbicides, for example cyhalofop is registered for use in rice. However other ACCase herbicides kill or severely injure rice to varying degrees. […] The applied rates of both types of herbicides giving the weed control are well within the tolerance level of the respective ACCase and HPPD tolerant lines including the combined lines carrying tolerance to both HPPD and ACCase herbicides.

[5] = test system: rice line RTA1+RTA2 (RL1225468, double homozygous stack); experiment: Field trait tolerance trial, FOP herbicides applied sequentially at 2-leaf and pre-flood
Source text: as §1, §2, §3

[6] = test system: mutant plants carrying RTA2 (R0146 X ML-083126502283F2); experiment: MutMap F2 population herbicide response scoring; assay type: in vivo, Oryza sativa; conditions: 3 week old plants, scored 21 days after spray
Source text: A MutMap population was F2 plants from a cross between rice line R0146 X ML-083126502283F2. Pictures were taken 16 days post herbicide spray.
The herbicide Quizalofop was sprayed on the test fields. […] The plants were scored first at 16 days after the herbicide spray and then at 21 days after herbicide spray.
Mutant plants carrying the ‘unknown mutation RTA2’ were resistant. 3 week old plants were sprayed with Quizalofop and the herbicide response was scored 21 days after the spray. Susceptible symptoms were already observed 7 days after the Quizalofop spray, but scoring was done at 21 days. […] Few plants scored 3 (little damage on leaves or new leaf growth observed, and most likely plants will survive) or score 5 (half of the canopy is damaged and hard to predict whether the plants will survive or not), or score 7 (more damage on leaves, plants will not survive).

[7] = test system: rice line ML0831265-02283 (RTA2); experiment: Field validation of tolerance to ACCase herbicide, percent injury 21 days after application; assay type: in vivo, Oryza sativa; conditions: 2× and 4× of labeled rate (77 gmai/ha), four leaf stage
Source text: After screening a large mutant population, the line ML0831265-02283 also survived application of the ACCase herbicide quizalofop. The line was increased to obtain sufficient seed for larger trials to evaluate its tolerance to ACCase herbicides. The tolerance to ACCase herbicides in line ML0831265-02283 was validated by planting in the field plots (5 feet by 10 feet) of the line, the non-mutant parent line R0146, a second non-mutant line P1003, and the ACCase tolerant line ML0831265-01493. The ACCase herbicide quizalofop was applied at the four leaf stage at 0.5×, 1×, 2×, and 4× multiples of the labeled rate (77 gmai/ha). Twenty one days after the herbicide was applied the plots were evaluated for percent injury caused to the rice based on control plots that had no herbicide application (FIG. 6). The data confirms the tolerance of line ML0831265-02283 and it may even carry more tolerance than line ML0831265-01493 as shown by less injury at the 2× and 4× rates of quizalofop.

Structure (SMILES) | tolerance compared with donor line ML0831265-01493 [1] | usability on the crop ([2]; rates of 2× or less, any trait combination containing RTA1) | rates of injury compared with the other FOP herbicides ([3]; RTA1) | control of common grass weeds, such as barnyard grass, in rice [4] | injury ([5]; RTA1+RTA2, 4×, FIG. 21 trial) | rates of injury compared with other FOP herbicides ([2]; across all trait combinations) | injury rates [3] [%] | herbicide response [6] | percent injury compared with line ML0831265-01493 [7] | yield ([3]; RTA1, 1× and 2× application rates) | injury ([5]; RTA1+RTA2, 4× label rate, 4 weeks post preflood application) | injury ([5]; RTA1+RTA2, high application rates, FIG. 21 trial) | maximum dose tolerated with no phytotoxicity ([5]; double homozygous RTA1-RTA2, 2-leaf stage) [oz/acre]
CC(Oc1ccc(Oc2ccc(C(F)(F)F)cn2)cc1)C(=O)O (stereo not shown) [Fluazifop] | equivalent tolerance | viable | much lower than either of the other FOP herbicides | good control | minimal injury | – | – | – | – | – | – | – | –
CC(C)=NOCCOC(=O)[C@@H](C)Oc1ccc(Oc2cnc3cc(Cl)ccc3n2)cc1 [Propaquizafop] | – | – | – | – | – | highest rates of injury | ~40 | – | – | – | – | – | –
CC(Oc1ccc(Oc2cnc3cc(Cl)ccc3n2)cc1)C(=O)O (stereo not shown) [Quizalofop] | equivalent tolerance | – | – | good control | – | – | ~40 | resistant | less injury | good yield retention | no injury | minimal | 80
